Here are results for 19 compounds from ChEMBL document CHEMBL4715859, “Small Molecules Selectively Targeting Sigma-1 Receptor for the Treatment of Neurological Diseases” (J Med Chem, 2020).

For experiment [1], the target named is T1, Sigma intracellular receptor 2 (Rattus norvegicus, UniProt Q5U3Y7).
T1 sequence (Q5U3Y7 whole entry): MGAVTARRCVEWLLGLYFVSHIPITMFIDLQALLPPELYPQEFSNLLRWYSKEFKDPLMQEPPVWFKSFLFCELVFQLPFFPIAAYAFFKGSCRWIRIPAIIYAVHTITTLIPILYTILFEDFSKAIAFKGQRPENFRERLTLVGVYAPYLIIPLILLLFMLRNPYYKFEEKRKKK
Format: cell membranes, Sprague-Dawley, Brain, Membrane.

For experiment [2], the target named is T1, Sigma intracellular receptor 2. As to the kind of experiment: Displacement of [3H]DTG from sigma2 receptor in rat liver membranes incubated for 120 mins by solid scintillation counting method. Type of experiment: cell membranes, Membrane. For orientation: Displacement assays read how much labelled ligand stays bound in the presence of the test substance.

The target in experiment [3] is T2, Sigma non-opioid intracellular receptor 1 (Cavia porcellus, UniProt Q60492). As to the kind of experiment: Displacement of [3H]-(+)-pentazocine from sigma1 receptor in guinea pig brain cortex membranes incubated for 120 mins by solid scintillation counting method. Format: cell membranes, Membrane.
The nature of experiment [4]: Selectivity ratio of Ki for displacement of [3H]DTG from sigma2 receptor in rat liver membranes to Ki for displacement of [3H]-(+)-pentazocine from sigma1 receptor in guinea pig brain cortex membranes. Type of experiment: cell membranes.
In experiment [5] the target is T3, Sigma non-opioid intracellular receptor 1 (Homo sapiens, UniProt Q99720). As to the kind of experiment: Binding affinity to sigma-1 receptor (unknown origin).
The target of experiment [6] is Sigma intracellular receptor 2 (Homo sapiens, UniProt Q5BJF2). The experiment in a line: Binding affinity to sigma-2 receptor (unknown origin).
Experiment [7] concerns the target Alpha-2A adrenergic receptor (Homo sapiens, UniProt P08913). The experiment in a line: Binding affinity to alpha 2A adrenoceptor (unknown origin).
In experiment [8] the target is T4, Sodium-dependent noradrenaline transporter (Homo sapiens, UniProt P23975). The experiment in a line: Inhibition of radioligand binding to noradrenaline transporter (unknown origin) at 1 uM relative to control.
In experiment [9] the target is D(4) dopamine receptor (Homo sapiens) (UniProt P21917). The experiment in a line: Inhibition of radioligand binding to dopamine D4 receptor (unknown origin) at 1 uM relative to control.
For experiment [10], the target named is Histamine H2 receptor (Homo sapiens) (UniProt P25021). The experiment in a line: Inhibition of radioligand binding to histamine H2 receptor (unknown origin) at 1 uM relative to control.
The target of experiment [11] is T5, Sodium-dependent dopamine transporter (Homo sapiens, UniProt Q01959). The experiment in a line: Inhibition of radioligand binding to dopamine transporter (unknown origin) at 1 uM relative to control.
Experiment [12] concerns the target Muscarinic acetylcholine receptor M1 (Homo sapiens, UniProt P11229). As to the kind of experiment: Binding affinity to muscarinic acetylcholine receptor M1 (unknown origin).
Experiment [13] has as its target Muscarinic acetylcholine receptor M4 (Homo sapiens, UniProt P08173). As to the kind of experiment: Binding affinity to muscarinic acetylcholine receptor M4 (unknown origin).
Experiment [14] has as its target Muscarinic acetylcholine receptor M3 (Homo sapiens, UniProt P20309). As to the kind of experiment: Binding affinity to muscarinic acetylcholine receptor M3 (unknown origin).
In experiment [15] the target is Muscarinic acetylcholine receptor M2 (Homo sapiens, UniProt P08172). The experiment in a line: Binding affinity to muscarinic acetylcholine receptor M2 (unknown origin).
Experiment [16] in a line: Displacement of [3H]-dio-tolylguanidine from Sigma 2 receptor in Dunkin-Hartley guinea pig brain membrane incubated for 120 mins in presence of sigma1 blocker (+)-SKF-10047 by liquid scintillation counting method. Format: cell membranes, Cavia porcellus.
The species named for the next experiment is Cavia porcellus. The experiment in a line: Selectivity ratio of Ki for sigma 2 receptor in Dunkin-Hartley guinea pig brain membranes to Ki for sigma 1 receptor in Dunkin-Hartley guinea pig brain membrane.
For another experiment, the target named is Histamine H3 receptor (Rattus norvegicus, UniProt Q9QYN8). The experiment in a line: Displacement of [3H]-methylhistamine from Histamine H3 receptor in rat cerebral cortex incubated for 30 min by liquid scintillation counting method. Format: tissue-based.
For experiment [17], the target named is T2, Sigma non-opioid intracellular receptor 1. The experiment in a line: Displacement of [3H]-(+)-pentazocine from sigma 1 receptor in Dunkin-Hartley guinea pig brain membranes incubated for 180 mins by liquid scintillation counting method. Type of experiment: cell membranes, Membrane.
Experiment [18] shares this target. The experiment in a line: Displacement of [3H]-(+)-pentazocine from sigma 1 receptor in guinea pig brain cortex membranes incubated for 120 mins by solid scintillation counting method. Type of experiment: cell membranes, Membrane.
Experiment [19] deals with T6, Sigma non-opioid intracellular receptor 1 (Rattus norvegicus, UniProt Q9R0C9). Format: cell membranes, Sprague-Dawley, Brain, Membrane.
Experiment [20] concerns the target T5, Sodium-dependent dopamine transporter. The experiment in a line: Displacement of [3H]WIN35428 from dopamine transporter (unknown origin) by liquid scintillation counting method.
Experiment [21] in a line: Selectivity ratio of Ki for displacement of [3H]DTG from sigma2 receptor in rat PC12 cells to Ki for displacement of [3H]-(+)-pentazocine from sigma1 receptor in guinea pig brain homogenate. Format: cell-based.
Experiment [22] concerns the target Sodium-dependent serotonin transporter (Homo sapiens, UniProt P31645). As to the kind of experiment: Displacement of [3H]citalopram from serotonin transporter (unknown origin) by liquid scintillation counting method.
Experiment [23] concerns the target T4, Sodium-dependent noradrenaline transporter. The experiment in a line: Displacement of [3H]nisoxetine from norepinephrine transporter (unknown origin) by liquid scintillation counting method.
Experiment [24] addresses T6, Sigma non-opioid intracellular receptor 1. The experiment in a line: Displacement of [3H]-(+)-pentazocine from sigma 1 receptor in rat liver membranes incubated for 60 mins […] by radioactivity method. Format: cell membranes, Membrane.
The target in experiment [25] is T1, Sigma intracellular receptor 2. As to the kind of experiment: Displacement of [3H]DTG from sigma 2 receptor in rat liver membranes incubated for 60 mins in presence of [3H]-(+)-pentazocine by radioactivity method. Format: cell membranes, Membrane.
Experiment [26] has as its target Kappa-type opioid receptor (Homo sapiens, UniProt P41145). As to the kind of experiment: Binding affinity to kappa opioid receptor (unknown origin).
In experiment [27] the target is T2, Sigma non-opioid intracellular receptor 1. As to the kind of experiment: Displacement of [3H]-(+)-pentazocine from sigma 1 receptor in Dunkin guinea pig brain membranes incubated for 120 mins by scintillation counting method. Type of experiment: cell membranes, Membrane.
Experiment [28] concerns the target T1, Sigma intracellular receptor 2. As to the kind of experiment: Displacement of [3H]DTG from sigma2 receptor in Wistar Hannover rat liver membranes incubated for 120 mins by solid scintillation counting method. Format: cell membranes, Membrane.
A short description of experiment [29]: Selectivity ratio of Ki for sigma2 receptor in Wistar Hannover rat liver membranes to Ki for sigma 1 receptor in Dunkin guinea pig brain membranes. Format: cell membranes.
The target of experiment [30] is Sigma intracellular receptor 2 (Mus musculus, UniProt Q8VD00). As to the kind of experiment: Inhibition of radioligand binding to sigma2 receptor in C57BL/6 mouse brain membranes. Type of experiment: cell membranes, Membrane.
Experiment [31] addresses Sigma non-opioid intracellular receptor 1 (Mus musculus, UniProt O55242). The experiment in a line: Inhibition of radioligand binding to sigma1 receptor in C57BL/6 mouse brain membranes. Format: cell membranes, Membrane.
The target of experiment [32] is T3, Sigma non-opioid intracellular receptor 1.
The nature of experiment [33]: Displacement of [3H]DTG from sigma2 receptor in guinea pig brain membranes by scintillation counting method. Format: cell membranes, Cavia porcellus, Membrane.

T3 sequence (Q99720 whole entry): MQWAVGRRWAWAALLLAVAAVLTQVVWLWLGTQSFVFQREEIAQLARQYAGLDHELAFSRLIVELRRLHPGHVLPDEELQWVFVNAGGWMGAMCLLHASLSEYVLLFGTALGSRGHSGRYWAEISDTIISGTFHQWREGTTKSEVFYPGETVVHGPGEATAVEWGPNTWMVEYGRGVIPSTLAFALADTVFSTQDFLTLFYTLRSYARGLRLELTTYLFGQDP
T2 sequence (Q60492 whole entry): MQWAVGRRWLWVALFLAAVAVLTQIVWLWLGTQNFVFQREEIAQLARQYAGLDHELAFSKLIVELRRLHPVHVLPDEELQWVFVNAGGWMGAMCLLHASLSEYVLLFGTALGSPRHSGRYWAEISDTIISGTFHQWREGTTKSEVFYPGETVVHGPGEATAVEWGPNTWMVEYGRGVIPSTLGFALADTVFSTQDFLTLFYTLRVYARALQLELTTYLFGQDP
T6 sequence (Q9R0C9 whole entry): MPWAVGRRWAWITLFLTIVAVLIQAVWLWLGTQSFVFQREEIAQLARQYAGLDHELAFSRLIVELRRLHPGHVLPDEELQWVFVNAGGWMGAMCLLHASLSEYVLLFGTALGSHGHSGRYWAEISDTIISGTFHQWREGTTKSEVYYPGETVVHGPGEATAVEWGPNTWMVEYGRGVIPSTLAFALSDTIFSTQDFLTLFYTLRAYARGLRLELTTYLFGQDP
Sigma intracellular receptor 2 (Homo sapiens, UniProt Q5BJF2), sequence (Q5BJF2 whole entry): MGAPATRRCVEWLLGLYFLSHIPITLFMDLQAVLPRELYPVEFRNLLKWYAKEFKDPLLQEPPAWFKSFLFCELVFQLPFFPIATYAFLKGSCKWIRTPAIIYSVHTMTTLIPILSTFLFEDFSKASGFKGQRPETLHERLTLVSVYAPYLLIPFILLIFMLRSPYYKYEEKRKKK
T4 sequence (P23975 whole entry): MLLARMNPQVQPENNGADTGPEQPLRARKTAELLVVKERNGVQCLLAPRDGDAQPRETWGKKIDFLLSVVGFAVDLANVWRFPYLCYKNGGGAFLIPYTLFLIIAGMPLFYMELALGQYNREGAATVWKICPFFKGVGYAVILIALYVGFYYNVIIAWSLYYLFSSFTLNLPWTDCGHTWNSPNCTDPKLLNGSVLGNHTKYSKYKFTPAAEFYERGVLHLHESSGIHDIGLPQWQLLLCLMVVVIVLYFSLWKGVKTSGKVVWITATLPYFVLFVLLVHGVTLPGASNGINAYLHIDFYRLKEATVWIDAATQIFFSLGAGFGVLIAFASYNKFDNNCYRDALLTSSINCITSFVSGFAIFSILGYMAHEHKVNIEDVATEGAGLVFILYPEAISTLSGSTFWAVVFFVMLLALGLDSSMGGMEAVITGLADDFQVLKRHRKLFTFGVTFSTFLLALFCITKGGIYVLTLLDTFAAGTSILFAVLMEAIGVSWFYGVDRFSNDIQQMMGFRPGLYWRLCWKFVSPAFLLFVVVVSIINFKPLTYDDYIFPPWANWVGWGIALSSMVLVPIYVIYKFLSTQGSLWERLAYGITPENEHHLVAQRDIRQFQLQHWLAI
T5 sequence (Q01959 whole entry): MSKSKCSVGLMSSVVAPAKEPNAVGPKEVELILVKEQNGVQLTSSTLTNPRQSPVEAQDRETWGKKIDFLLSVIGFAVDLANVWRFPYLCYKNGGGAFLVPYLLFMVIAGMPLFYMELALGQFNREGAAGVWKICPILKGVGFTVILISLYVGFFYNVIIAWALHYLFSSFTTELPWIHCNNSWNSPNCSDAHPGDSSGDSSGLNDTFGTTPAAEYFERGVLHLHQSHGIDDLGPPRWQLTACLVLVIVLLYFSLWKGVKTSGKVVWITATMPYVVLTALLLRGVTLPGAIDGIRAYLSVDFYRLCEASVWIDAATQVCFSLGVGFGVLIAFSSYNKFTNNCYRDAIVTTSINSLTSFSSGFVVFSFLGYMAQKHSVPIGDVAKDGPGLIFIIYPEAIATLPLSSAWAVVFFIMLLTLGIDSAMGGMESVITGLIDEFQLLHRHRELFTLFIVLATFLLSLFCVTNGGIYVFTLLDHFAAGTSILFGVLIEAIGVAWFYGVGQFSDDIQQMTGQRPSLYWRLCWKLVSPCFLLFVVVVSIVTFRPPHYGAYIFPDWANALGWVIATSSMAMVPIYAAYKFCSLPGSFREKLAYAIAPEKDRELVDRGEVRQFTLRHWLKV
Kappa-type opioid receptor, sequence (P41145 whole entry): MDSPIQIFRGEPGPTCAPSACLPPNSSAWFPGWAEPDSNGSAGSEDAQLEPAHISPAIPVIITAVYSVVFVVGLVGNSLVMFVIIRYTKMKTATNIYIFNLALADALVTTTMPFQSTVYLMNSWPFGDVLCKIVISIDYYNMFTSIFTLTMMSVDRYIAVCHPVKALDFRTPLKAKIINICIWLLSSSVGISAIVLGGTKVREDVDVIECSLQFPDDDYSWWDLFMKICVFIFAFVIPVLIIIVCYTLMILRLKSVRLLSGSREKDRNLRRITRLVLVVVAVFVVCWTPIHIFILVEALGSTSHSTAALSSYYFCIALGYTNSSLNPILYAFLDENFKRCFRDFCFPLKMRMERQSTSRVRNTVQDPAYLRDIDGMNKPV
D(4) dopamine receptor (Homo sapiens), sequence (P21917 whole entry): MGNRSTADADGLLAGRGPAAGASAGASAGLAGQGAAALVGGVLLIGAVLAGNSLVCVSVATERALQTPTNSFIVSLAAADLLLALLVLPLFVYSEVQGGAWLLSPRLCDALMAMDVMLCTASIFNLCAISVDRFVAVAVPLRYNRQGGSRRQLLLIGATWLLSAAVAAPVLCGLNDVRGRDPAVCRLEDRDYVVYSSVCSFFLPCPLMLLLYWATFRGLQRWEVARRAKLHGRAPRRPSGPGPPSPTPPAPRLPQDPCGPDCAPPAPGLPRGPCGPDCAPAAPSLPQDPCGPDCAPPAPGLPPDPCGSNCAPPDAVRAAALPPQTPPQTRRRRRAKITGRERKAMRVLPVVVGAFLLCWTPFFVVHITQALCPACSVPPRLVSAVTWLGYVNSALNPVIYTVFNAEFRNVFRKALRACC
Sodium-dependent serotonin transporter, sequence (P31645 whole entry): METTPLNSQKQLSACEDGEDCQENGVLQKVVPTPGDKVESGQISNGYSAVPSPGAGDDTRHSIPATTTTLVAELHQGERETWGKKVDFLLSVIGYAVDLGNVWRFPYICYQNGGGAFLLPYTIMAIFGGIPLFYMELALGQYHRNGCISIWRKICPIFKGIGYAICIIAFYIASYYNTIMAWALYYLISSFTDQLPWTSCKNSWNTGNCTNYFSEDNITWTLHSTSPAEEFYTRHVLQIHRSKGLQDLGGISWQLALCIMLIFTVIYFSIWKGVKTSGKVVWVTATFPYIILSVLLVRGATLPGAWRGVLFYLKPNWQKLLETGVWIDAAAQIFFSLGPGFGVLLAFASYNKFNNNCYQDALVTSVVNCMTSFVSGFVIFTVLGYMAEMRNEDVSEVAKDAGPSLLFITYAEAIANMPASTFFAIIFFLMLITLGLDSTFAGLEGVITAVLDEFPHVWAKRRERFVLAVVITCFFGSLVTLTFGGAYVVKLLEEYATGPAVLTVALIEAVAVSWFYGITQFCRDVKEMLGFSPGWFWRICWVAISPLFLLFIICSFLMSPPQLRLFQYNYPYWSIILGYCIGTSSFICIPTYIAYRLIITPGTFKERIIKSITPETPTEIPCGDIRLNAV
Muscarinic acetylcholine receptor M2, sequence (P08172 whole entry): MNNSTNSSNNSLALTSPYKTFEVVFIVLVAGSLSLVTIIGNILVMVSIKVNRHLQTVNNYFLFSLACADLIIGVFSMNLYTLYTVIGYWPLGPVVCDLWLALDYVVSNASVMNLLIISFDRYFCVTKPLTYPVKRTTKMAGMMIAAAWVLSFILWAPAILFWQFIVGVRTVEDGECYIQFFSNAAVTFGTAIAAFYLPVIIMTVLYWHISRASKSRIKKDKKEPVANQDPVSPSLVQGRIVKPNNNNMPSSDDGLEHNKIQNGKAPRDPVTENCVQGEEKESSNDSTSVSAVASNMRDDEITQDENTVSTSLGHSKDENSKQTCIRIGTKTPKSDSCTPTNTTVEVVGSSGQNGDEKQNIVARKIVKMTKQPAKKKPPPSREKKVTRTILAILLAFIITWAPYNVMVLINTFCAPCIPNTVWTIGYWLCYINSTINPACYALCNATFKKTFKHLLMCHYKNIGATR
Alpha-2A adrenergic receptor, sequence (P08913 whole entry): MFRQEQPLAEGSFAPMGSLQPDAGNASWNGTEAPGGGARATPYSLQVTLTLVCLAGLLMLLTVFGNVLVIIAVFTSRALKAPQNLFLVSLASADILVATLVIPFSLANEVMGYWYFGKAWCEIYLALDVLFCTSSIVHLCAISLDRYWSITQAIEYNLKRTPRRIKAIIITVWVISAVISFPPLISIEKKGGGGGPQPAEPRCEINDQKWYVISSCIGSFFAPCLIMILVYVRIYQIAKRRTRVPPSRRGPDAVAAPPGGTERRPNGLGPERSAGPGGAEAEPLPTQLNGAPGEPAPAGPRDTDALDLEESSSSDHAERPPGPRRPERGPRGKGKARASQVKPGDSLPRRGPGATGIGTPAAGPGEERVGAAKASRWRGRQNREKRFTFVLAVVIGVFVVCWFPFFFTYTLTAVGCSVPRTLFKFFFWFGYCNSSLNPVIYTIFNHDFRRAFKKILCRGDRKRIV
Muscarinic acetylcholine receptor M4, sequence (P08173 whole entry): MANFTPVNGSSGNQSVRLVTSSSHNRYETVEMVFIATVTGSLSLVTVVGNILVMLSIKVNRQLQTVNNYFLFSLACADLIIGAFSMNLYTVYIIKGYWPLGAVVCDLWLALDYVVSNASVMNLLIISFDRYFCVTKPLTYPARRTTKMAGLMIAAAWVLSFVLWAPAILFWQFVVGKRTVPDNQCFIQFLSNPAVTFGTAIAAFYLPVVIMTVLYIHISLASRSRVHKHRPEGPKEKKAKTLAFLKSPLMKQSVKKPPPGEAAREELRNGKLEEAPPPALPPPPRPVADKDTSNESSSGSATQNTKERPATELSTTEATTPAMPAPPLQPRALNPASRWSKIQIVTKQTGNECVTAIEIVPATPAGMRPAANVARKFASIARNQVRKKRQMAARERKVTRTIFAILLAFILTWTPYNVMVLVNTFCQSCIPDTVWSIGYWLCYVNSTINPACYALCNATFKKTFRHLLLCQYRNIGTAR

The compound `CNCCC(Oc1ccc(C(F)(F)F)cc1)c1ccccc1` (configuration not stated) [FLUOXETINE] came in with a Ki in experiment [1] of 16100 nM.
Take `c1ccc(CC2CCN(CC3CCCCC3)Cc3ccccc32)cc1` (configuration not stated): the inhibitory constant (Ki) in experiment [2] turned out to be 125 nM; in [3] it was 2.4 nM. In addition, the Ratio Ki in experiment [4] was more than 52.
As for `C=C1CCN2Cc3ccc(OC)cc3[C@H]3CCCC[C@]32C1`, the Ki in experiment [5] came to 8 nM; in experiment [6], 152 nM; in experiment [7], 531 nM.
For `CCN(CC)CCOCCOC(=O)C1(c2ccccc2)CCCC1` [CARBETAPENTANE], the figures for the inhibitory constant (Ki) in experiment [5] and in experiment [6] were 129 nM and 1950 nM, respectively.
As to `Fc1ccc(CN2CCC(Cc3ccccc3)c3ccccc3C2)cc1` (configuration not stated), the figures for the Ki in [2] and in experiment [3] were 889 nM and 7.1 nM, respectively. The inhibition in experiment [8] was 71%; in [9], 91%; in experiment [10], 59%; in [11] it was 85%. Also, the Ratio Ki in [4] is more than 52.
As for `CN(C)CC1CCOC1(c1ccccc1)c1ccccc1` (configuration not stated) [BLARCAMESINE], the half-inhibitory concentration (IC50) in [5] is 860 nM; in experiment [12], 3300 nM; in experiment [13], 3300 nM; in experiment [14] it was 3300 nM; in experiment [15] it was 3300 nM.
Take `Clc1ccc(-c2noc(CCCCN3CCOCC3)n2)c(Cl)c1`: the Ki in experiment [16] stood at 164 nM; at Histamine H3 receptor, 23.2 nM; in experiment [17], 0.28 nM. In addition, in the experiment filed under Cavia porcellus, the Ratio Ki is 587.
As to `O=C(COc1ccc(Cl)c(Cl)c1)NCCN1CCOCC1`, the inhibitory constant (Ki) was 1500 nM in experiment [2] and 42 nM in [18].
With `CN(C)CCCN1c2ccccc2CCc2ccccc21` [IMIPRAMINE], the inhibitory constant (Ki) in experiment [19] worked out at 343 nM; in experiment [1], 2110 nM.
Take `c1ccc(OCc2cc(OCCNC3CCC3)no2)cc1`: the Ki in experiment [20], in [22] and in [23] was more than 7000 nM each time. The Ratio Ki in experiment [21] stood at 990.
For the compound `c1ccc(CN2CCC3(CCc4ccccc4S3)CC2)cc1`, the results for the Ki in experiment [24] and in experiment [25] were 0.5 nM and 416 nM, respectively.
In experiment [26], `CC(C)=CCN1CCC2(C)c3cc(O)ccc3CC1C2C` (configuration not stated) [PENTAZOCINE] returned a Ki of 2.2 nM.
In the case of `COc1ccc2c(CCCCN3C4CCCC3CCC4)cccc2c1`, the Ki in experiment [27] worked out at 1.03 nM; in experiment [28], 226 nM. The Ratio Ki in experiment [29] stood at 317.
For the compound `CCOC1(c2ncc(-c3ccncc3)s2)CCN(Cc2ccccc2)CC1`, the Ki in [2] came out at 3600 nM; in experiment [3], 1.9 nM. Besides, the Ratio Ki in experiment [4] was more than 1500.
On the same counts, the results for `CCOC1(c2ncc(-c3cccnc3)s2)CCN(Cc2ccccc2)CC1` are 2130 nM, 1.3 nM and more than 1500.
In the case of `C#CCN(C)CCCOc1ccc(Cl)cc1Cl` [CLORGILINE], the inhibition constant (Ki) in [30] worked out at 505 nM; in experiment [31] it was 2.9 nM.
In turn, `CCCN1CCC(c2cccc(S(C)(=O)=O)c2)CC1` [PRIDOPIDINE] returned an inhibitory constant (Ki) in experiment [32] of 81.7 nM.
Consider `c1ccc(CO[C@H](c2ccccc2)[C@H]2CCN(Cc3ccccc3)Cc3ccccc32)cc1`, for which the inhibitory constant (Ki) in experiment [2] stood at 668 nM; in experiment [3], 9 nM. In experiment [4], the Ratio Ki is more than 52.
Compound `COc1ccc(CCN2CCN(CCCc3ccccc3)CC2)cc1OC` [[11C]SA4503] showed an IC50 in experiment [33] of 1800 nM.

What is called Ki is the equilibrium dissociation constant of an inhibitor or competing ligand from its target. One may read the inhibition as how much of the control response was suppressed. A high value points to a strong effect. As a reminder, the IC50 is the point on the concentration scale where inhibition reaches its midpoint.
